These compounds were tested on HCV 1b-377-neo replicon cells (assay: HCV Replicon assay, HCV 1b-377-neo replicon cells). Conditions: Hepatitis C virus, read-out: EC50 against HCV 1b (Activity or Range).
Type: cell-based, HCV 1b genotype
Protocol: An HCV Replicon assay was utilized in the present disclosure, and was prepared, conducted and validated as described in commonly owned PCT/US2006/022197 and in O'Boyle et. al. Antimicrob Agents Chemother. 2005 April; 49(4):1346-53.
HCV 1b-377-neo replicon cells were used to test the currently described compound series as well as cells resistant to compound A containing a Y2065H mutation in NS5A (described in application PCT/US2006/022197). The compounds tested were determined to have more than 10-fold less inhibitory activity on cells containing the mutation than wild-type cells indicating a related mechanism of action between the two compound series. Thus, the compounds of the present disclosure can be effective to inhibit the function of the HCV NS5A protein and are understood to be as effective in combinations as previously described in application PCT/US2006/022197 and commonly owned WO/O4014852. Further, the compounds of the present disclosure can be effective against the HCV 1b genotype. It should also be understood that the compounds of the present disclosure can inhibit multiple genotypes of HCV. […] In one embodiment compounds of the present disclosure are active against the 1a, 1b, 2a, 2b, 3a, 4a, and 5a genotypes.
`COC(=O)N[C@H](C(=O)N1[C@@H]2C[C@@H]2C[C@H]1c1nc2c([nH]1)CCc1cc(-c3ccc(-c4[nH]c([C@@H]5C[C@H]6C[C@H]6N5C(=O)[C@@H](NC(=O)OC)C(C)C)nc4CC(F)(F)F)cc3)ccc1-2)C(C)C` [Example 22r.3] was tested, and the EC50 was 0.003 nM.
`COC(=O)N[C@H](C(=O)N1CCC[C@H]1c1ncc(-c2ccc(-c3ccc4c(c3)CCc3[nH]c([C@@H]5CCCN5C(=O)[C@@H](NC(=O)OC)[C@@H](C)OC)nc3-4)cc2F)[nH]1)[C@H](C)OC` [Example 22s.c] gave an EC50 of 0.02 nM.
With `COC(=O)N[C@H](C(=O)N1CC(F)(F)C[C@H]1c1ncc(-c2ccc(-c3ccc4c(c3)CCc3[nH]c([C@@H]5CCCN5C(=O)[C@@H](NC(=O)OC)C(C)C)nc3-4)cc2)[nH]1)C(C)C` [Example 22t] the EC50 was 0.001 nM.
With `COC(=O)N[C@@H](C(=O)N1CCC[C@H]1c1nc2c(ccc3cc(-c4ccc5c(ccc6nc([C@@H]7CCCN7C(=O)[C@H](NC(=O)OC)c7ccccc7)[nH]c65)c4)ccc32)[nH]1)c1ccccc1` [Example 22u.2b] the EC50 was 0.02 nM.
Work on `CCN(CC)[C@@H](C(=O)N1CCC[C@H]1c1ncc(-c2ccc(-c3ccc4c(ccc5[nH]c([C@@H]6CCCN6C(=O)[C@@H](c6ccccc6)N(CC)CC)nc54)c3)cc2)[nH]1)c1ccccc1` [Example 22u.a] yielded an EC50 of 0.01 nM.

Same assay, conditions: Hepatitis C virus, read-out: EC50 against HCV 1b (Activity or Range), range class
In the case of `COC(=O)N[C@H](C(=O)N1CCC[C@H]1c1nc2c([nH]1)CCc1cc(-c3ccc4c(c3)CCc3[nH]c([C@@H]5CCCN5C(=O)[C@@H](NC(=O)OC)C(C)C)nc3-4)ccc1-2)C(C)C` [Example 22r.4], the EC50 is reported as 0.001 to 0.1 nM.
In the case of `COC(=O)N[C@H](C(=O)N1[C@@H]2C[C@@H]2C[C@H]1c1nc2c([nH]1)CCc1cc(-c3ccc4c(c3)CCc3[nH]c([C@@H]5C[C@H]6C[C@H]6N5C(=O)[C@@H](NC(=O)OC)C(C)C)nc3-4)ccc1-2)C(C)C` [Example 22r.5], the EC50 is reported as 0.001 to 0.1 nM.
`CCN(CC)[C@@H](C(=O)N1CCC[C@H]1c1ncc(-c2ccc(-c3ccc4c(c3)CCc3[nH]c([C@@H]5CCCN5C(=O)[C@@H](c5ccccc5)N(CC)CC)nc3-4)cc2)[nH]1)c1ccccc1` [Example 22r.a] gave an EC50 of 0.001 to 0.1 nM.
Compound `COC(=O)N[C@H](C(=O)N1CCC[C@H]1c1ncc(-c2ccc(-c3ccc4c(c3)OCc3[nH]c([C@@H]5CCCN5C(=O)[C@@H](NC(=O)OC)C(C)C)nc3-4)cc2)[nH]1)C(C)C` [Example 22r.b] has an EC50 of 0.001 to 0.1 nM.
Compound `COC(=O)N[C@H](C(=O)N1CCC[C@H]1c1ncc(-c2ccc(-c3ccc4c(c3)CCc3[nH]c([C@@H]5CCCN5C(=O)[C@@H](NC(=O)OC)C(C)C)nc3-4)cc2)[nH]1)C(C)C` [Example 22r] has an EC50 of 0.001 to 0.1 nM.
Compound `COC(=O)N[C@H](C(=O)N1[C@@H]2C[C@@H]2C[C@H]1c1ncc(-c2ccc(-c3ccc4c(c3)CCc3[nH]c([C@@H]5C[C@H]6C[C@H]6N5C(=O)[C@@H](NC(=O)OC)C(C)C)nc3-4)cc2F)[nH]1)C(C)C` [Example 22s.1] has an EC50 of 0.001 to 0.1 nM.
In the case of `CCN(CC)[C@@H](C(=O)N1[C@@H]2C[C@@H]2C[C@H]1c1ncc(-c2ccc(-c3ccc4c(c3)CCc3[nH]c([C@@H]5C[C@H]6C[C@H]6N5C(=O)[C@@H](c5ccccc5)N(CC)CC)nc3-4)cc2F)[nH]1)c1ccccc1` [Example 22s.1a], the EC50 is reported as 0.001 to 0.1 nM.
`COC(=O)N[C@@H](C(=O)N1[C@@H]2C[C@@H]2C[C@H]1c1ncc(-c2ccc(-c3ccc4c(c3)CCc3[nH]c([C@@H]5C[C@H]6C[C@H]6N5C(=O)[C@H](NC(=O)OC)c5ccccc5)nc3-4)cc2F)[nH]1)c1ccccc1` [Example 22s.1b] was tested, and the EC50 was 0.001 to 0.1 nM.
`CCN(CC)[C@@H](C(=O)N1CCC[C@H]1c1ncc(-c2ccc(-c3ccc4c(c3)CCc3[nH]c([C@@H]5CCCN5C(=O)[C@@H](c5ccccc5)N(CC)CC)nc3-4)cc2F)[nH]1)c1ccccc1` [Example 22s.a] gave an EC50 of 0.001 to 0.1 nM.
In the case of `COC(=O)N[C@H](C(=O)N1CCC[C@H]1c1ncc(-c2ccc(-c3ccc4c(c3)CCc3[nH]c([C@@H]5CCCN5C(=O)[C@@H](NC(=O)OC)C(C)C)nc3-4)cc2F)[nH]1)C(C)C` [Example 22s], the EC50 is reported as 0.001 to 0.1 nM.
Compound `COC(=O)N[C@H](C(=O)N1CCC[C@H]1c1ncc(-c2ccc(-c3ccc4c(c3)CCc3[nH]c([C@@H]5CC(F)(F)CN5C(=O)[C@@H](NC(=O)OC)C(C)C)nc3-4)cc2)[nH]1)C(C)C` [Example 22t.1] has an EC50 of 0.001 to 0.1 nM.
Compound `CCN(CC)[C@@H](C(=O)N1CCC[C@H]1c1ncc(-c2ccc(-c3ccc4c(c3)CCc3[nH]c([C@@H]5CC(F)(F)CN5C(=O)[C@@H](c5ccccc5)N(CC)CC)nc3-4)cc2)[nH]1)c1ccccc1` [Example 22t.1a] has an EC50 of 0.001 to 0.1 nM.
`CCN(CC)[C@@H](C(=O)N1CC(F)(F)C[C@H]1c1ncc(-c2ccc(-c3ccc4c(c3)CCc3[nH]c([C@@H]5CCCN5C(=O)[C@@H](c5ccccc5)N(CC)CC)nc3-4)cc2)[nH]1)c1ccccc1` [Example 22t.a] showed an EC50 of 0.001 to 0.1 nM.
`COC(=O)N[C@H](C(=O)N1[C@@H]2C[C@@H]2C[C@H]1c1ncc(-c2ccc(-c3ccc4c(ccc5[nH]c([C@@H]6C[C@H]7C[C@H]7N6C(=O)[C@@H](NC(=O)OC)C(C)C)nc54)c3)cc2)[nH]1)C(C)C` [Example 22u.1] gave an EC50 of 0.001 to 0.1 nM.
Work on `COC(=O)N[C@H](C(=O)N1CCC[C@H]1c1nc2c(ccc3cc(-c4ccc5c(ccc6nc([C@@H]7CCCN7C(=O)[C@@H](NC(=O)OC)C(C)C)[nH]c65)c4)ccc32)[nH]1)C(C)C` [Example 22u.2] yielded an EC50 of 0.001 to 0.1 nM.
For `CCN(CC)[C@@H](C(=O)N1CCC[C@H]1c1nc2c(ccc3cc(-c4ccc5c(ccc6nc([C@@H]7CCCN7C(=O)[C@@H](c7ccccc7)N(CC)CC)[nH]c65)c4)ccc32)[nH]1)c1ccccc1` [Example 22u.2a], the EC50 was 0.001 to 0.1 nM.
For `COC(=O)N[C@H](C(=O)N1[C@@H]2C[C@@H]2C[C@H]1c1nc2c([nH]1)-c1ccc(-c3ccc4c(ccc5[nH]c([C@@H]6C[C@H]7C[C@H]7N6C(=O)[C@@H](NC(=O)OC)C(C)C)nc54)c3)cc1CC2)C(C)C` [Example 22u.4], the EC50 was 0.001 to 0.1 nM.
`COC(=O)N[C@H](C(=O)N1[C@@H]2C[C@@H]2C[C@H]1c1nc2c(ccc3cc(-c4ccc5c(ccc6nc([C@@H]7C[C@H]8C[C@H]8N7C(=O)[C@@H](NC(=O)OC)C(C)C)[nH]c65)c4)ccc32)[nH]1)C(C)C` [Example 22u.5] was tested, and the EC50 was 0.001 to 0.1 nM.
`COC(=O)N[C@@H](C(=O)N1[C@@H]2C[C@@H]2C[C@H]1c1nc2c(ccc3cc(-c4ccc5c(ccc6nc([C@@H]7C[C@H]8C[C@H]8N7C(=O)[C@H](NC(=O)OC)c7ccccc7)[nH]c65)c4)ccc32)[nH]1)c1ccccc1` [Example 22u.5a] was tested, and the EC50 was 0.001 to 0.1 nM.
`COC(=O)N[C@H](C(=O)N1CCC[C@H]1c1ncc(-c2ccc(-c3ccc4c(ccc5[nH]c([C@@H]6CCCN6C(=O)[C@@H](NC(=O)OC)[C@@H](C)OC)nc54)c3)cc2)[nH]1)[C@H](C)OC` [Example 22u.b] gave an EC50 of 0.001 to 0.1 nM.
With `COC(=O)N[C@H](C(=O)N1CCC[C@H]1c1ncc(-c2ccc(-c3ccc4c(ccc5[nH]c([C@@H]6CCCN6C(=O)[C@@H](NC(=O)OC)C(C)C)nc54)c3)cc2)[nH]1)C(C)C` [Example 22u] the EC50 was 0.001 to 0.1 nM.
`COC(=O)N[C@H](C(=O)N1[C@@H]2C[C@@H]2C[C@H]1c1ncc(-c2ccc(-c3ccc4c(ccc5[nH]c([C@@H]6C[C@H]7C[C@H]7N6C(=O)[C@@H](NC(=O)OC)C(C)C)nc54)c3)cc2F)[nH]1)C(C)C` [Example 22v.1] was tested, and the EC50 was 0.001 to 0.1 nM.

From patent US8147818B2, “Hepatitis C virus inhibitors” (Bristol-Myers Squibb Company, priority 2008, dated 2012)
